Among the targets are CDK2 (UniProt P24941); EGFR (UniProt P00533); MAPK14 (UniProt Q16539).
The target of another test is PIK3CG (UniProt P48736). As to the kind of experiment: Inhibition of PIK3CG Kinase Activity.
The next test deals with PIK3CD (Human) (UniProt O00329). Description: Inhibition of PIK3CD Kinase Activity.
A further test concerns the target PIK3CA (human) (UniProt P42336). As to the kind of experiment: Inhibition of PIK3CA Kinase Activity.
The target of test [1] is PIK3CB (Human) (UniProt P42338). As to the kind of experiment: Assessment of Neutrophil ROS Response in Human Whole Blood. Conditions: neutrophils.
For test [2] the target is unchanged. Description: Inhibition of CD9 Antibody Induced Platelet Aggregation.
Test [3] shares this target. As to the kind of experiment: Inhibition of U937 Cell Proliferation.
Test [4] has the same target. Description: Inhibition of Platelet Thrombus Formation under Flow.

Where only a bound is given, the exact number is not on record here.

The source of these data is the Kinase Knowledgebase extract (Sharma et al. 2016).

PIK3CG, sequence (P48736 whole entry, looked up): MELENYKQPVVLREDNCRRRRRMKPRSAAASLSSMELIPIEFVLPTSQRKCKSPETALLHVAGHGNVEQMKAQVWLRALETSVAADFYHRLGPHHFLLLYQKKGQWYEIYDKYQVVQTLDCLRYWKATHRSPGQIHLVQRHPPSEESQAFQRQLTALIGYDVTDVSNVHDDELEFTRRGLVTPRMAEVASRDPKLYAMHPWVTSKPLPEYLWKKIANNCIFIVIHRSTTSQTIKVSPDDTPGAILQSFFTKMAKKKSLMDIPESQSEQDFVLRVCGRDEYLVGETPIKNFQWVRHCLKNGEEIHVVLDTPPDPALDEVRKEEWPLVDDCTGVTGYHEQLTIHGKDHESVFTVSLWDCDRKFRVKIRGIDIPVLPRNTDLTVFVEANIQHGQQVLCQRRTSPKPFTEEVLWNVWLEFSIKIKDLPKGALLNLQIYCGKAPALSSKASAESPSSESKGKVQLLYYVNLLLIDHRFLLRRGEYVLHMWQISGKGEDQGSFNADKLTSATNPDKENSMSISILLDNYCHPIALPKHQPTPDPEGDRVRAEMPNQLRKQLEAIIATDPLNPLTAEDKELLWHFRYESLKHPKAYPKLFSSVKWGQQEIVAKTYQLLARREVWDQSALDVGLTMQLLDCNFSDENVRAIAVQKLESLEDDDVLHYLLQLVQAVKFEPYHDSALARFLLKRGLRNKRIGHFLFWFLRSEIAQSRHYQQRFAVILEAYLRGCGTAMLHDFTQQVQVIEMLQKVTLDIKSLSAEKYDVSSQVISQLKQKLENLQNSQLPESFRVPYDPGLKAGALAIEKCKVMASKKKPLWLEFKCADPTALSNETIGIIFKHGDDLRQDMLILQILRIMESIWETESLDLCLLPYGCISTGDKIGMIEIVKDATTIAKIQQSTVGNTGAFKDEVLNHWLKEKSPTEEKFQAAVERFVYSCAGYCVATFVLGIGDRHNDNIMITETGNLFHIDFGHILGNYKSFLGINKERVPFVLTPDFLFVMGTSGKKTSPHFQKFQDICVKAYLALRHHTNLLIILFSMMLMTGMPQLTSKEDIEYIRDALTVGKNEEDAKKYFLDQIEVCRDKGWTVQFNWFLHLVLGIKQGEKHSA
PIK3CD (Human), sequence (O00329 whole entry, looked up): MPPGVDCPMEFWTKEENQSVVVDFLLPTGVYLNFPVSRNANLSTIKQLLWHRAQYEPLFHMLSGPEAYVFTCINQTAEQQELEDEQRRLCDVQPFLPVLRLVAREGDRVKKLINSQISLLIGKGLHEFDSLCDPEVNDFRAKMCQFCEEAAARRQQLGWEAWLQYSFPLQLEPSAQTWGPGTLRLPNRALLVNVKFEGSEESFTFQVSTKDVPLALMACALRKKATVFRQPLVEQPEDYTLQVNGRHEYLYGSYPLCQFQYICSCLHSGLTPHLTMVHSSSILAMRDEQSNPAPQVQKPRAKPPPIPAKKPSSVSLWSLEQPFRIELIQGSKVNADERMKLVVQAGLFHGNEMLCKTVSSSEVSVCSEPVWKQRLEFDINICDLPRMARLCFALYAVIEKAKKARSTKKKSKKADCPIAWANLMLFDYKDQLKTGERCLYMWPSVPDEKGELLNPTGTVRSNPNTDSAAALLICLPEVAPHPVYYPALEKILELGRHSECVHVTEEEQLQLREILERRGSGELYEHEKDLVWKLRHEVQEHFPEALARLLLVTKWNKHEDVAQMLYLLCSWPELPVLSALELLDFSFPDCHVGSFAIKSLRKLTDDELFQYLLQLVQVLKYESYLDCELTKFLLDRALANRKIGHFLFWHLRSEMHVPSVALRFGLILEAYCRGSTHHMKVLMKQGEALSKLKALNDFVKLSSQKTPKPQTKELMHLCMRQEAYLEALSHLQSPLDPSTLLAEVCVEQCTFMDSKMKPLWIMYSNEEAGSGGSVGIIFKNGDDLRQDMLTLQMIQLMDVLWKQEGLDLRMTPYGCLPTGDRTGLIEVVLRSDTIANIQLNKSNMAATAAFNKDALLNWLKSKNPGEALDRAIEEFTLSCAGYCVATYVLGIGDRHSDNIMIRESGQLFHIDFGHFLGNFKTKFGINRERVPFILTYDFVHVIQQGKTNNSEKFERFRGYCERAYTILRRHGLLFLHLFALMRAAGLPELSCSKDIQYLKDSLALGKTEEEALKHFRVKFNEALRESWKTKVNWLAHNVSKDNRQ
PIK3CB (Human), sequence (P42338 whole entry, looked up): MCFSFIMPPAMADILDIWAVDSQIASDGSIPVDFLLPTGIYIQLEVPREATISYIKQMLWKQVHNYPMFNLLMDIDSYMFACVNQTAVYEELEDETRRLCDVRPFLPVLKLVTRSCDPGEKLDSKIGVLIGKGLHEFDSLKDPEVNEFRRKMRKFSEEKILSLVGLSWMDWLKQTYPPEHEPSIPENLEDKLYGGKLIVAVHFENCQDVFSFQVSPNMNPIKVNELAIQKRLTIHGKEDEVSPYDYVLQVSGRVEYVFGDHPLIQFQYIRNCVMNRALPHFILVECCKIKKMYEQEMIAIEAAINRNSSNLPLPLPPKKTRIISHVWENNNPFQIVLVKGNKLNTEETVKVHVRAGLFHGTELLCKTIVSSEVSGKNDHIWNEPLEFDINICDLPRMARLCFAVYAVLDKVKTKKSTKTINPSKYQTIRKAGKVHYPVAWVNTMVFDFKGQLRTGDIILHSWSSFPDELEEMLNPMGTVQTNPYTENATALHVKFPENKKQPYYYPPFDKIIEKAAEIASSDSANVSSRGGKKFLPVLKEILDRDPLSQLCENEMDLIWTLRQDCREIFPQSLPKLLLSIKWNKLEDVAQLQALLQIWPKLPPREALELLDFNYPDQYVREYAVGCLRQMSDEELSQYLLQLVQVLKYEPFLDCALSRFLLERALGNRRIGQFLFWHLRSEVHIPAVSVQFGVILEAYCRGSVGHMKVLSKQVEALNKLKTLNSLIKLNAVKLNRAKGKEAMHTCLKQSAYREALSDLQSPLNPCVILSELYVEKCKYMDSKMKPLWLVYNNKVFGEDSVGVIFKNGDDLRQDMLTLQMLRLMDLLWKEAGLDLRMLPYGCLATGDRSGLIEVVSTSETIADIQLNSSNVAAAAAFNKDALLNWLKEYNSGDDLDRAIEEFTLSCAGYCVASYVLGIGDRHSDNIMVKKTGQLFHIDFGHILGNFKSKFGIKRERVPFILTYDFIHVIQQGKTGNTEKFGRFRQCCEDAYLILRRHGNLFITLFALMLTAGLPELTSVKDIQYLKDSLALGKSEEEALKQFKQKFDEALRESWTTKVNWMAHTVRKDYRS
PIK3CA (human), sequence (P42336 whole entry, looked up): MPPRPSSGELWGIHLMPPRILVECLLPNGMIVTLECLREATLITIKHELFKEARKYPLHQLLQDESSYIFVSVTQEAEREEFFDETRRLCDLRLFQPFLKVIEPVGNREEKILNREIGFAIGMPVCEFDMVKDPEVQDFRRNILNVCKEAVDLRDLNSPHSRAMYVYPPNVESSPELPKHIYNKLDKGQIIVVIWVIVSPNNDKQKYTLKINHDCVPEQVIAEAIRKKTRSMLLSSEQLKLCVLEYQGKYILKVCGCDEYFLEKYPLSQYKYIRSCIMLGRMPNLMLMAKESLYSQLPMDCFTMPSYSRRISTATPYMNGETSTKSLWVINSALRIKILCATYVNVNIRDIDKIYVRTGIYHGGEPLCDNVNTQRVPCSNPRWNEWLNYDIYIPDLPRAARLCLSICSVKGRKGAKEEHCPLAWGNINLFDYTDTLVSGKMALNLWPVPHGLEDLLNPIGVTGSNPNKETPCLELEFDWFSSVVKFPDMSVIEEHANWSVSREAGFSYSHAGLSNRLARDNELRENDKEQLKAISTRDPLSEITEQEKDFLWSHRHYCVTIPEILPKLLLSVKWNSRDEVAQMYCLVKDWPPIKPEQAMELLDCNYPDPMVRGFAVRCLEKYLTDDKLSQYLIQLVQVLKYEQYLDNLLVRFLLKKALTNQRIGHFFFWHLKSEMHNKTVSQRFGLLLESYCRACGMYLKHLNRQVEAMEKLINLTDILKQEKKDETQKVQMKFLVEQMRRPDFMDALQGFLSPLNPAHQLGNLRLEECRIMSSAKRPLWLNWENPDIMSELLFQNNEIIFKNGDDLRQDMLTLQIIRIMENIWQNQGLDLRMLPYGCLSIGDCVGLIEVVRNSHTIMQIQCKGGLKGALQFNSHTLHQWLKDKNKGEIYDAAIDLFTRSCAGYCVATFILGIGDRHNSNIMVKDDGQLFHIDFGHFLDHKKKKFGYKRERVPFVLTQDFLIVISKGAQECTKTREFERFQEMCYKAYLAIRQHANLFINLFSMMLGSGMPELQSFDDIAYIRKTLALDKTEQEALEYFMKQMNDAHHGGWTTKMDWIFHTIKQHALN
MAPK14, sequence (Q16539 whole entry, looked up): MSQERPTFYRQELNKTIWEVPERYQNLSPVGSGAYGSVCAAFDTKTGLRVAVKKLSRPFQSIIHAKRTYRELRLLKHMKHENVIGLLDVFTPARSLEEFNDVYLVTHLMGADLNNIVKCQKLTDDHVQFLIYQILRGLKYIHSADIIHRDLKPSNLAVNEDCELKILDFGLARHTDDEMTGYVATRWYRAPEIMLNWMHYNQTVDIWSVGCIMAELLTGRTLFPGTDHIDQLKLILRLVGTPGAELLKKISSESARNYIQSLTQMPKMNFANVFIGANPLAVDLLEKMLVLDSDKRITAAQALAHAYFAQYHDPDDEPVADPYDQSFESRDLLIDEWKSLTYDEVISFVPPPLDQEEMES

On PIK3CG, `Cc1cc(C(C)Nc2cccc(C(F)(F)F)c2)c2oc(-c3ccncc3)cc(=O)c2c1` (stereo not drawn) registered a concentration for half-maximal inhibition (IC50) of 10 µM.
Regarding `Cc1cc(CNc2ccccc2)c2oc(-c3ccncc3)cc(=O)c2c1`, the IC50 against PIK3CG and against PIK3CD (Human) was 10 µM throughout.
As for `Cc1cc(C(C)n2c(C(F)(F)F)nc3ccccc32)c2oc(-c3ccncc3)cc(=O)c2c1` (stereo not drawn), the IC50 against PIK3CG and against PIK3CD (Human) was 10 µM each time.
The molecule `Cc1cccc(NC(C)c2cc(C)cn3c(=O)cc(N4CCOCC4)nc23)c1` (stereo not drawn) showed an IC50 on PIK3CA (human) of over 5 µM.
With `O=c1cc(-c2ccncc2)[nH]c2c(-c3ccccc3)cccc12`, at PIK3CD (Human), the IC50 was 10 µM.
For the molecule `CC(Nc1ccccc1N)c1cccc2c(=O)cc(-c3ccncc3)oc12` (stereo not drawn), the IC50 against PIK3CG was 15 µM; against PIK3CB (Human) [1], 0.078 µM; at PIK3CB (Human) [2], 0.2 µM; against PIK3CD (Human), 0.5 µM; against PIK3CB (Human) [3] it was 20 µM; at PIK3CB (Human) [4], 0.25 µM.
On to `Cc1cc(C(C)Oc2ccccc2)c2oc(-c3ccncc3)cc(=O)c2c1` (stereo not drawn), for which the IC50 against PIK3CG was determined as 20 µM.
The same measure, in the same setting: next, `O=c1cc(-c2ccncc2)oc2c(OCc3ccccc3)cccc12`: 10 µM.
`Cc1cc(C(C)Nc2ccccn2)c2nc(N3CCOCC3)cc(=O)n2c1` (stereo not drawn) showed an IC50 at PIK3CA (human) of over 5 µM.
On the same count and under the same terms, next, `Cc1cc(C(C)Nc2cccc(C(F)(F)F)c2)c2nc(N3CCOCC3)cc(=O)n2c1` (stereo not drawn): over 5 µM.
For `Cc1cc(C(C)Nc2ccccc2)c2oc(-c3ccncc3)cc(=O)c2c1` (stereo not drawn), the IC50 amounted to 0.005 µM against PIK3CB (Human) [1], 0.1 µM at PIK3CB (Human) [2], 5 µM on PIK3CB (Human) [3] and 0.5 µM on PIK3CB (Human) [4].
In turn, `Cc1cc(CN(C)c2ccccc2)c2nc(N3CCOCC3)cc(=O)n2c1` yielded an IC50 against PIK3CA (human) of over 5 µM.
Same read-out and setting: next, `Cc1cc(C(C)Nc2ccc(Cl)c(Cl)c2)c2nc(N3CCOCC3)cc(=O)n2c1` (stereo not drawn): over 5 µM.
Still for that read-out and setting: the figure for `Cc1cc(C(C)Nc2cccc(Cl)c2)c2nc(N3CCOCC3)cc(=O)n2c1` (stereo not drawn) is over 5 µM.
For `Cc1cc(N[C@H](C)c2ccccc2)c2nc(-c3ccncc3)cc(=O)n2c1`, the concentration for half-maximal inhibition (IC50) at PIK3CG worked out at 20 µM; against PIK3CD (Human), 1 µM.
On PIK3CG, `Cc1cc(COc2ccccc2)c2oc(-c3ccncc3)cc(=O)c2c1` registered an IC50 of 10 µM.
For `CC(=O)Nc1ccccc1NCc1cc(C)cc2c(=O)cc(-c3ccncc3)oc12`, the IC50 stood at 5 µM against PIK3CG and 1 µM on PIK3CD (Human).
For the molecule `Cc1cc(C(C)Nc2ccccc2)c2nc(N3CCOCC3)cc(=O)n2c1` (stereo not drawn), the IC50 on CDK2 was over 10 µM; at EGFR, over 10 µM; against PIK3CA (human), over 5 µM; against MAPK14, over 10 µM.
On PIK3CA (human), `Cc1cc(C(C)Nc2cc(F)cc(F)c2)c2nc(N3CCOCC3)cc(=O)n2c1` (stereo not drawn) gave an IC50 of over 5 µM.
Regarding `Cc1cc(-c2ccccc2)c2nc(-c3ccncc3)cc(=O)n2c1`, the IC50 on PIK3CG and against PIK3CD (Human) was over 10 µM each time.
In the case of `Cc1cc(C(C)Nc2ccc(Cl)cc2)c2nc(N3CCOCC3)cc(=O)n2c1` (stereo not drawn), on PIK3CA (human), the IC50 was over 5 µM.
With `O=c1cc(-c2ccncc2)oc2c(NCc3ccccc3)cccc12`, the IC50 against PIK3CD (Human) is 0.2 µM.
